{"source": "patent US11565005B2", "about": "“Dota-hapten compositions for anti-dota/anti-tumor antigen bispecific antibody pretargeted radioimmunotherapy” (MEMORIAL SLOAN KETTERING CANCER CENTER, priority 2017, dated 2023)", "key": {"[1]": {"target": "anti-DOTA-hapten antibody single chain variable fragment C825", "settings": "mean ±SD, read-out: Kd (equilibrium dissociation constant) of C825, cited from earlier work"}, "SW1222 tumor": {"test_system": "SW1222 tumor", "test": "In vivo competition study: maximum tumor uptake of pretargeted DOTA-hapten", "design": "species or system mice", "description": "In addition to studies with tracer doses of radiolabeled Proteus-DOTA, the upper limit for absolute tumor uptake of radiolabeled Proteus-DOTA was determined using in vivo competition studies. Biodistribution experiments were conducted 24 h following dosing of groups of tumor bearing mice with wide mass range of Proteus-DOTA spanning 2 orders of magnitude (˜170-33800 pmol), showing maximum tumor uptake (“Bmax”) of ˜60 pmol DOTA-hapten/gram of SW1222 tumor. […] Based on a maximum tumor uptake of pretargeted Proteus-DOTA of 62 pmol per gram of SW1222 tumor, ˜180 nCi of ^225Ac could be localized per gram of tumor at SA that are currently achieved with quantitative RCY."}, "[2]": {"test": "Dynamic PET imaging and ex vivo biodistribution of [^68Ga]Proteus-DOTA in mice bearing NCI-N87 tumors", "design": "species or system nude mice", "text": "Decay-corrected blood and kidney time-activity curves (TAC) are shown for two individual mice. The blood-TAC for each of the animals was separately curve-fitted to a non-linear two phase decay equation. The (i) percent fast, (ii) half life (slow; minutes), (iii) half-life (fast; minutes), and (iv) R^2 values for mouse 1/mouse 2 were: 46/56, 13.2/13.7, 1.4/0.94, and 0.95/0.99, respectively.\nPET Imaging and Biodistribution Studies with […]. […] Nude mice bearing HER2-expressing NCI-N87 human gastric carcinoma subcutaneous xenografts (n=4) were injected with 113-140 μCi ([…]) [^68Ga]Proteus-DOTA and imaged with dynamic positron-emission imaging for […] post-injection (p.i.) (n=2), or with static imaging at 1 h p.i. (n=4). All animals were then sacrificed at 2 hours post injection for ex vivo biodistribution analysis. The list-mode data was histogrammed using the following protocol: 12×10 seconds, 6×30 seconds, 5×60 seconds, 4×300 seconds, 30 min, resulting in […]. Regions-of-interest were drawn around heart (for blood as cardiac outflow) and kidney to determine activity concentrations (as % ID/g)."}, "[3]": {"test": "Blood half-life and biodistribution of [^111In]Proteus-DOTA in tumor-free nude mice", "assay_type": "in vivo, athymic nu/nu female mice", "description": "The blood half-life of surrogate [^111In] Proteus-DOTA was determined. Dotted line indicates nonlinear two phase decay analysis used to calculate half-life (R^2=0.913). Data is presented as mean ±SD.\n(n=5 mice; given i.v.) in tumor-free healthy athymic nu/nu female mice.\nPreparation of [^111In]Proteus-DOTA. Using similar radiochemical methods, [^111In]Proteus-DOTA was prepared from [^111In]indium chloride (Nuclear Diagnostic Products, Inc., Rockaway, N.J.; 249 MBq [6.73 mCi]) and 150 μL of 10 mg/mL Proteus-DOTA (1.5 mg; 1.11 μmoles). The [^111In]Proteus-DOTA yield was >98% and the final Specific Activity was 162.8 GBq/g [4.4 Ci/g] or 2.28 E5 GBq/mol [6160 Ci/mol]. This preparation was used for pharmacokinetic studies. Prior to administration into mice, the [^111In]Proteus-DOTA was purified using a Strata™-X cartridge (33 μm Polymeric Reversed Phase C-18 30 mg/l mL #8B-S100-TAK, Phenomenex® Inc., Torrance, Calif. USA) as described for [^68Ga]Proteus-DOTA and the radiochemical purity was verified to be >98% either using an in vitro binding assay with excess BsAb or by analytical reverse-phase HPLC coupled with radiodetection.\nA biodistribution assay conducted at 240 min p.i."}, "[4]": {"test_system": "GPA33-expressing SW1222 xenografts", "settings": "anti-GPA33-DOTA-PRIT, 10-50 pmol, 24 hours p.i.; cited from earlier work"}, "[5]": {"test_system": "GD2-expressing IMR-32 human neuroblastoma xenografts", "test": "Anti-GD2-DOTA-PRIT pretargeting biodistribution, ^225Ac- vs ^177Lu-DOTA-Bn", "assay_type": "in vivo, athymic nude mice", "settings": "pretargeted with hu3F8-C825 + clearing agent, 24 hours post-injection", "description": "Female athymic nude mice bearing subcutaneous GD2-expressing IMR-32 human neuroblastoma xenografts in the right-hand flank were injected intravenously (i.v.) via the lateral tail-vein with three separate reagents: (1) hu3F8-C825 (0.25 mg, 1.19 nmol) [t=−28 hours (h)], followed by (2) 0.1 mg 500 kD-dextran-DOTA-Bn(Y) (0.2 nmol of CA; 146 DOTA-Bn(Y)/mol of dextran, 29 nmol of DOTA-Bn(Y)) [t=−4 h] and (3) an equimolar amount of either ^177Lu- or ^225Ac-DOTA-Bn (50 μCi and 100 μCi of ^177Lu and ^225Ac, respectively, 8-10 pmol) at [t=0 h]. Mice were sacrificed at 24 h post-injection of radiotracer for biodistribution assay of tumor and select normal tissues. The average tumor masses were as follows (presented as average ±SD): 0.77±0.62 g and 0.49±0.28 g for ^177Lu and ^225Ac cohorts, respectively. Activity concentration data are expressed as the mean % ID/g standard error of the mean (SEM). Errors for the tumor-to-tissue ratios are calculated as the geometric mean of the standard errors of the mean. Student's t-test p-values highlighted in bold are considered significant (p<0.05)."}, "[6]": {"settings": "biphasic, nonlinear two phase decay, R^2=0.913"}}, "note": "Values joined by “and” are separate entries in the source; they are usually repeats but may differ in a detail not shown here. Equal values may be shown once. Read-outs that look alike come from different tables or passages of the source."}
{"smiles": "Nc1ccc(CC2CN(CC(=O)[O-])CCN(CC(=O)O)CCN(CC(=O)[O-])CCN2CC(=O)[O-])cc1.[Lu+3]", "note": "(stereo not drawn) [DOTA-Bn complex of Lu, S-2-(4-aminobenzyl)-1,4,7,10-tetraazacyclododecane tetraacetic acid chelate]", "values": [{"measurement": "Kd", "setting": "[1]; listed as benzyl-DOTA (Lu) hapten", "value": 0.01, "unit": "nM"}, {"measurement": "Kd", "setting": "[1]", "value": "0.0108 ± 0.0025", "unit": "nM"}]}
{"smiles": "O=C([O-])CN1CCN(CC(=O)[O-])CCN(CC(=O)NCCOCCOCCOCCOCCNC(=S)Nc2ccc(CC3CN(CC(=O)[O-])CCN(CC(=O)[O-])CCN(CC(=O)[O-])CCN3CC(=O)[O-])cc2)CCN(CC(=O)[O-])CC1.[Lu+3]", "note": "(stereo not drawn) [Proteus-DOTA]", "values": [{"measurement": "^225Ac that could be localized per gram of tumor", "setting": "SW1222 tumor; based on 62 pmol per gram at currently achieved SA", "value": "~180", "unit": "nCi"}, {"measurement": "maximum tumor uptake (\"Bmax\")", "setting": "SW1222 tumor; pretargeted, 24 h after dosing, ~170-33800 pmol", "value": "~60 pmol DOTA-hapten/gram of SW1222 tumor and 62 pmol DOTA-hapten/gram of SW1222 tumor"}]}
{"smiles": "O=C([O-])CN1CCN(CC(=O)[O-])CCN(CC(=O)NCCOCCOCCOCCOCCNC(=S)Nc2ccc(CC3CN(CC(=O)[O-])CCN(CC(=O)[O-])CCN(CC(=O)[O-])CCN3CC(=O)[O-])cc2)CCN(CC(=O)[O-])CC1.[68Ga+3].[Lu+3]", "note": "(stereo not drawn) [[^68Ga]Proteus-DOTA]", "values": [{"measurement": "Blood activity concentration", "setting": "[2]; 2 h p.i., n = 4", "value": "2.29 ± 0.31", "unit": "% ID/g"}, {"measurement": "Bone activity concentration", "setting": "[2]; 2 h p.i., n = 4", "value": "0.39 ± 0.07", "unit": "% ID/g"}, {"measurement": "Heart activity concentration", "setting": "[2]; 2 h p.i., n = 4", "value": "0.75 ± 0.10", "unit": "% ID/g"}, {"measurement": "Kidneys activity concentration", "setting": "[2]; 2 h p.i., n = 4", "value": "1.53 ± 0.50", "unit": "% ID/g"}, {"measurement": "Large Intestine activity concentration", "setting": "[2]; 2 h p.i., n = 4", "value": "0.44 ± 0.10", "unit": "% ID/g"}, {"measurement": "Liver activity concentration", "setting": "[2]; 2 h p.i., n = 4", "value": "1.19 ± 0.08", "unit": "% ID/g"}, {"measurement": "Lungs activity concentration", "setting": "[2]; 2 h p.i., n = 4", "value": "1.00 ± 0.13", "unit": "% ID/g"}, {"measurement": "Muscle activity concentration", "setting": "[2]; 2 h p.i., n = 4", "value": "0.17 ± 0.03", "unit": "% ID/g"}, {"measurement": "Small Intestine activity concentration", "setting": "[2]; 2 h p.i., n = 4", "value": "0.59 ± 0.21", "unit": "% ID/g"}, {"measurement": "Spleen activity concentration", "setting": "[2]; 2 h p.i., n = 4", "value": "0.56 ± 0.13", "unit": "% ID/g"}, {"measurement": "Stomach activity concentration", "setting": "[2]; 2 h p.i., n = 4", "value": "0.19 ± 0.05", "unit": "% ID/g"}, {"measurement": "Tumor activity concentration", "setting": "[2]; NCI-N87 tumor, 2 h p.i., n = 4", "value": "0.65 ± 0.08", "unit": "% ID/g"}, {"measurement": "blood half life (slow)", "setting": "[2]; mouse 1, two phase decay fit", "value": 13.2, "unit": "min"}, {"measurement": "blood half-life (fast)", "setting": "[2]; mouse 1, two phase decay fit", "value": 1.4, "unit": "min"}, {"measurement": "blood time-activity curve, percent fast", "setting": "[2]; mouse 1, two phase decay fit", "value": 46}, {"measurement": "blood half life (slow)", "setting": "[2]; mouse 2, two phase decay fit", "value": 13.7, "unit": "min"}, {"measurement": "blood half-life (fast)", "setting": "[2]; mouse 2, two phase decay fit", "value": 0.94, "unit": "min"}, {"measurement": "blood time-activity curve, percent fast", "setting": "[2]; mouse 2, two phase decay fit", "value": 56}]}
{"smiles": "O=C([O-])CN1CCN(CC(=O)[O-])CCN(CC(=O)NCCOCCOCCOCCOCCNC(=S)Nc2ccc(CC3CN(CC(=O)[O-])CCN(CC(=O)[O-])CCN(CC(=O)[O-])CCN3CC(=O)[O-])cc2)CCN(CC(=O)[O-])CC1.[111In+3].[Lu+3]", "note": "(stereo not drawn) [[^111In]Proteus-DOTA]", "values": [{"measurement": "kidney retention (percent injected activity per gram of tissue)", "setting": "[3]; 240 min p.i., i.v., n=5, mean ±SD", "value": "0.96±0.25", "unit": "% IA/g"}, {"measurement": "remaining ^111In-activity in carcass after tissue dissection", "setting": "[3]; 240 min p.i., n=5, mean ±SD", "value": "0.952±0.162", "unit": "% ID"}, {"measurement": "share of alpha phase of blood clearance", "setting": "[3]; biphasic, nonlinear two phase decay", "value": 87.7, "unit": "%"}, {"measurement": "blood half-life (alpha)", "setting": "[3]; [6]", "value": 7.49, "unit": "min"}, {"measurement": "blood half-life (beta)", "setting": "[3]; [6]", "value": 24.8, "unit": "min"}]}
{"smiles": "Nc1ccc(CC2CN(CC(=O)[O-])CCN(CC(=O)[O-])CCN(CC(=O)[O-])CCN2CC(=O)[O-])cc1.[86Y+3]", "note": "(stereo not drawn) [^86Y-DOTA-Bn]", "values": [{"measurement": "mean tumor uptake", "setting": "[4]", "value": "~8", "unit": "% ID/g"}]}
{"smiles": "Nc1ccc(CC2CN(CC(=O)[O-])CCN(CC(=O)[O-])CCN(CC(=O)[O-])CCN2CC(=O)[O-])cc1.[177Lu+3]", "note": "(stereo not drawn) [^177Lu-DOTA-Bn]", "values": [{"measurement": "Blood uptake", "setting": "[5]", "value": "0.49±0.09", "unit": "% ID/g"}, {"measurement": "kidney uptake", "setting": "[5]", "value": "0.83±0.10", "unit": "% ID/g"}, {"measurement": "tumor uptake", "setting": "[5]; IMR-32 xenograft, n=5", "value": "10.29±2.87", "unit": "% ID/g"}, {"measurement": "maximum tumor uptake", "setting": "SW1222 tumor; pretargeted, same system, i.v. administered dose of 600 pmol", "value": "~60", "unit": "pmol/g"}, {"measurement": "mean tumor uptake", "setting": "[4]", "value": "~8", "unit": "% ID/g"}]}
